Format in all cases: in vitro ADME
For one experiment, the target named is T1, CYP2C19 (Homo sapiens, UniProt P33261).
T1 construct: from tissue; host or cells: pooled human liver microsomes
The experiment in a line: CYP-direct inhibition, CYP2C19. Here is the method: (§1) Many drugs inhibit cytochrome P450 enzymes to cause clinically significant changes in the pharmacokinetics of other drugs. In vitro cytochrome P450 inhibition, can provide crucial information in evaluating potential clinical drug-drug interactions and is useful for focusing in vivo tests to areas of concern. The cytochrome P450 inhibition assay was developed by preparing a working cocktail solution consisting of six probe substrates 10 μM ethoxy-resorufin (CYP1A2), 100 μM rosiglitazone (CYP2C8), 50 μM diclofenac (CYP2C9), 300 μM S-mephenytoin (CYP2C19), 50 μM dextromethorphan (CYP2D6), and 20 μM midazolam (CYP3A4). A mixture solution consists of 140 uL of 0.286 mg/mL of pooled human liver microsome working solution and 20 uL working solutions of test articles, standard control inhibitors, or positive control placebo and 20 uL of substrate cocktail mixture working solution was prepared. The mixture solution was pre-warm in a gentle shaking bath at 37±2° C. for 5 minutes. The enzymatic reaction started by adding 20 uL of NRS working solution to the mixture solution and incubated for 10 minutes at 37±2° C. To stop the reaction, an addition of 400 μL cold stop solution (acetonitrile containing 50 ng/mL Tolbutamide as an internal standard (I.Std.) was added to the mixture solution. The final concentration of test article, inhibitors, substrates, and cofactors are noted in Table 0.1 below. Two individual samples were prepared for each test compound. The extracted samples were vortexed and then centrifuged at 4500 rpm for 7 minutes using Eppendorf Centrifuge 5910R. 200 uL of supernatant was diluting with 200 uL of 50% Methanol into 96-DW plate for LC/MS/MS analysis
(§2) Concentration-response plots are used to determine the effects of an inhibitor on an enzymatic reaction. A typical concentration-response plot provides fractional activity (Y axis) is plotted as a function of log inhibitor concentration (X axis). The data are fitted using a standard Sigmoidal dose-response equation which is also called a […] logistic equation. The concentration of compound that results in 50% inhibition of maximal activity is termed as the IC50 (inhibitor concentration yielding 50% inhibition). IC50 value is calculated using Prism GraphPad software, version 9. […].
(§3) Cytochrome P450 inhibition of a drug is a key factor in determining pharmacokinetic drug-drug interactions. The objective of this study was to evaluate the inhibition potential of G9a inhibitors on six (6) major human cytochrome P450 enzymes, including CYP1A2, CYP2C8, CYP2C9, CYP2C19, CYP2D6, and CYP3A4. Inhibition was determined by using a substrate cocktail and analyzing the rate of specific metabolites formation. The cytochrome P450 inhibition assay was developed using a cocktail consisting of six (6) probe substrates ethoxy-resorufin (CYP1A2), rosiglitazone (CYP2C8), diclofenac (CYP2C9), S-mephenytoin (CYP2C19), dextromethorphan (CYP2D6), and midazolam (CYP3A4). The cocktail was incubated in human liver microsome with NADPH regenerating system (NRS) in a shaking bath at 37±2° C. The formation of specific metabolites was monitored by LC/MS/MS. Test compound was added to the cocktail-liver microsome mixture at varying concentrations and its effect on cytochrome P450 activity was determined by analyzing the rate of specific metabolite formation. The percent inhibition was calculated and plotted with reference to the concentration, and the IC50 value for inhibition was derived by fitting the data with a using log(inhibitor) vs. normalized response with variable slope least squares fit by Graphpad Prism® software. […].

In another experiment the target is T2, CYP1A2 (Homo sapiens, UniProt P05177).
T2 construct: from tissue; host or cells: pooled human liver microsomes
T2 sequence (P05177 1-516): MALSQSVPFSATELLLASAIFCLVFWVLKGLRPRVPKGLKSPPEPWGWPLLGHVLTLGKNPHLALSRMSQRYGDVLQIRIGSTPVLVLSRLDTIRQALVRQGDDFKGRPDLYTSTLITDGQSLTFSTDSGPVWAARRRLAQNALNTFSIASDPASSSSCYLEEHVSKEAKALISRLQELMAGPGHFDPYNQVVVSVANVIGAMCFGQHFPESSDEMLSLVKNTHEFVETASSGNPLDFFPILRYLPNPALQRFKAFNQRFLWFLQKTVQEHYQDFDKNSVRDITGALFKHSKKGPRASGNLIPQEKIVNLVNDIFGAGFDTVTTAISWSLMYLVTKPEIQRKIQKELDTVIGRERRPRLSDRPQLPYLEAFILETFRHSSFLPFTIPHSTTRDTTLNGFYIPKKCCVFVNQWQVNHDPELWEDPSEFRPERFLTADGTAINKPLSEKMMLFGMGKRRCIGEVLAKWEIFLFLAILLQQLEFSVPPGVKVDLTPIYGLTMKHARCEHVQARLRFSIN
Description: CYP-direct inhibition, CYP1A2. Here is the method: as §1, §2, §3

Another experiment addresses T3, CYP3A4 (Homo sapiens, UniProt P08684).
T3 construct: from tissue; host or cells: pooled human liver microsomes
Description: CYP-direct inhibition, CYP3A4. Here is the method:
as §1, §2, §3

Setting [1] is: human liver microsome, substrate ethoxy-resorufin, read-out: IC50 CYP-1A2.

Each structure is given as a SMILES string. pIC50: −log10 of the molar value. Like-named read-outs stand apart in the source and are kept apart here.

T1 sequence (P33261 whole entry): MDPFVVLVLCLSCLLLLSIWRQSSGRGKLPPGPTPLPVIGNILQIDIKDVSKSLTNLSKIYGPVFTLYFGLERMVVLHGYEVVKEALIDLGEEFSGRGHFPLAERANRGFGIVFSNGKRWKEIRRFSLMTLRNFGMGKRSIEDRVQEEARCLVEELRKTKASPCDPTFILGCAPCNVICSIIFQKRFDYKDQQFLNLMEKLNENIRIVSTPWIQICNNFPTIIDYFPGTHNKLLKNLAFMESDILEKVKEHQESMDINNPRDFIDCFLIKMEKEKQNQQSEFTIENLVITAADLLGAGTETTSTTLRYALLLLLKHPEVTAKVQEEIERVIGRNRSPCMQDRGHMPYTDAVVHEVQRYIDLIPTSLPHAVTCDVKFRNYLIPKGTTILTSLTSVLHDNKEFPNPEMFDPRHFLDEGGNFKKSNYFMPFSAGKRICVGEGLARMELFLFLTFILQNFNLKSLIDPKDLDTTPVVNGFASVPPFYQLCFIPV
T3 sequence (P08684 whole entry): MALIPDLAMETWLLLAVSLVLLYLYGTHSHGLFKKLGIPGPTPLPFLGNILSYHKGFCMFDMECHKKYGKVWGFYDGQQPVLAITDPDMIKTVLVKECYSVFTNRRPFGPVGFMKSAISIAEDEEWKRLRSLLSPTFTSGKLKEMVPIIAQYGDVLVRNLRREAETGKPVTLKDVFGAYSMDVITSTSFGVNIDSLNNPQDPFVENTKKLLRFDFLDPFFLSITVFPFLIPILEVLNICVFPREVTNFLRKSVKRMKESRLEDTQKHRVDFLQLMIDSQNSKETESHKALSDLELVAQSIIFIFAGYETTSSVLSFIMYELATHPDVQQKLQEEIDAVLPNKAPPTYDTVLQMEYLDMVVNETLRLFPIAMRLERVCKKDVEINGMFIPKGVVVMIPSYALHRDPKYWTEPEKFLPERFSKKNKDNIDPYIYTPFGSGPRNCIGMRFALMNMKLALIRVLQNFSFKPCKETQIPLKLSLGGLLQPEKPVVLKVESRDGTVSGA

Regarding `COc1cc2c(NC3CCS(=O)(=O)CC3)nc(N3CCCN(C)CC3)nc2cc1OCCCN1CCCC1` [Compound 110, 4-((6-methoxy-2-(4-methyl-1,4-diazepan-1-yl)-7-(3-(pyrrolidin-1-yl)propoxy)quinazolin-4-yl)amino)tetrahydro-2H-thiopyran 1,1-dioxide], the pIC50 against CYP2C19, on CYP1A2 (setting [1]) and against CYP3A4 was < 4.00 in each case.
Take `COc1cc2c(NC3CCN(C(C)C)CC3)nc(-n3cccn3)nc2cc1OCCCN1CCCC1` [Compound 157, N-(1-isopropylpiperidin-4-yl)-6-methoxy-2-(1H-pyrazol-1-yl)-7-(3-(pyrrolidin-1-yl)propoxy)quinazolin-4-amine]: the pIC50 at CYP2C19, on CYP1A2 (setting [1]) and on CYP3A4 was < 4.00 each time.
Take `COc1cc2c(NC3CCOCC3)nc(N3CCCC3)nc2cc1OCCCN1CCCC1` [Compound 164, 6-methoxy-2-(pyrrolidin-1-yl)-7-(3-(pyrrolidin-1-yl)propoxy)-N-(tetrahydro-2H-pyran-4-yl)quinazolin-4-amine]: the negative logarithm of the IC50 (pIC50) against CYP2C19, at CYP1A2 (setting [1]) and against CYP3A4 was < 4.00 throughout.
For `COc1cc2c(NC3CCNCC3)nc(N3CCC(F)(F)CC3)nc2cc1OCCCN1CCCC1` [Compound 8, 2-(4,4-difluoropiperidin-1-yl)-6-methoxy-N-(piperidin-4-yl)-7-(3-(pyrrolidin-1-yl)propoxy)quinazolin-4-amine], the pIC50 against CYP2C19, at CYP1A2 (setting [1]) and on CYP3A4 was < 4.00 throughout.
`COc1cc2c(NC3CCOCC3)nc(N3CCOCC3)nc2cc1OCCCN1CCCC1` [Compound 195, 6-methoxy-2-morpholino-7-(3-(pyrrolidin-1-yl)propoxy)-N-(tetrahydro-2H-pyran-4-yl)quinazolin-4-amine]: the pIC50 against CYP2C19, on CYP1A2 (setting [1]) and at CYP3A4 was < 4.00 throughout.
As for `COc1cc2c(NCC3CCN(C)CC3)nc(N3CCC(F)(F)CC3)nc2cc1OCCCN1CCCC1` [Compound 5, 2-(4,4-difluoropiperidin-1-yl)-6-methoxy-N-((1-methylpiperidin-4-yl)methyl)-7-(3-(pyrrolidin-1-yl)propoxy)quinazolin-4-amine], the pIC50 on CYP2C19, on CYP1A2 (setting [1]) and against CYP3A4 was < 4.00 each time.
For the molecule `COc1cc2c(NC3CCS(=O)(=O)CC3)nc(N3CCC(F)(F)CC3)nc2cc1C#CCN1CCCC1` [Compound 248, 4-((2-(4,4-difluoropiperidin-1-yl)-6-methoxy-7-(3-(pyrrolidin-1-yl)prop-1-yn-1-yl)quinazolin-4-yl)amino)tetrahydro-2H-thiopyran 1,1-dioxide], the pIC50 at CYP2C19, at CYP1A2 (setting [1]) and against CYP3A4 was < 4.00 throughout.
Turning to `COc1cc2c(NC3CCN(C(C)C)CC3)nc(N3CCC3)nc2cc1OCCCN1CCCC1` [Compound 234, 2-(azetidin-1-yl)-N-(1-isopropylpiperidin-4-yl)-6-methoxy-7-(3-(pyrrolidin-1-yl)propoxy)quinazolin-4-amine], the negative-log IC50 (pIC50) against CYP2C19, at CYP1A2 (setting [1]) and against CYP3A4 was < 4.00 in each case.
With `COc1cc2c(NCC(N)=O)nc(N3CCC(F)(F)CC3)nc2cc1OCCCN1CCCC1` [Compound 9, 2-((2-(4,4-difluoropiperidin-1-yl)-6-methoxy-7-(3-(pyrrolidin-1-yl)propoxy)quinazolin-4-yl)amino)acetamide], the pIC50 against CYP2C19, at CYP1A2 (setting [1]) and against CYP3A4 was < 4.00 in each case.
Take `COCCN1CCC(Nc2nc(N3CCC(F)(F)CC3)nc3cc(OCCCN4CCCC4)c(OC)cc23)CC1` [Compound 3, 2-(4,4-difluoropiperidin-1-yl)-6-methoxy-N-(1-(2-methoxyethyl)piperidin-4-yl)-7-(3-(pyrrolidin-1-yl)propoxy)quinazolin-4-amine]: the pIC50 against CYP2C19, at CYP1A2 (setting [1]) and at CYP3A4 was < 4.00 each time.
`COc1cc2c(NC3CCOCC3)nc(N3CCS(=O)(=O)CC3)nc2cc1OCCCN1CCCC1` [Compound 196, 4-(6-methoxy-7-(3-(pyrrolidin-1-yl)propoxy)-4-((tetrahydro-2H-pyran-4-yl)amino)quinazolin-2-yl)thiomorpholine 1,1-dioxide]: the pIC50 on CYP2C19, on CYP1A2 (setting [1]) and at CYP3A4 was < 4.00 throughout.
Regarding `COc1cc2c(NC3CCS(=O)(=O)CC3)nc(N3CCC(F)(F)CC3)nc2cc1OCCCN1CCCC1` [Compound 1, 4-((2-(4,4-difluoropiperidin-1-yl)-6-methoxy-7-(3-(pyrrolidin-1-yl)propoxy)quinazolin-4-yl)amino)tetrahydro-2H-thiopyran 1,1-dioxide], the pIC50 at CYP2C19, at CYP1A2 (setting [1]) and against CYP3A4 was < 4.00 in each case.
Take `COc1cc2c(NC3CCN(C(C)C)CC3)nc(N3CCC(F)(F)CC3)nc2cc1OCCCN1CCCC1` [Compound 400, 2-(4,4-difluoropiperidin-1-yl)-N-(1-isopropylpiperidin-4-yl)-6-methoxy-7-(3-(pyrrolidin-1-yl)propoxy)quinazolin-4-amine, reference compound]: the pIC50 at CYP2C19, at CYP1A2 and against CYP3A4 was < 4.00 throughout.
`COc1cc2c(NC3CCS(=O)(=O)CC3)nc(N3CCN(C)CC3)nc2cc1OCCCN1CCCC1` [Compound 109, 4-((6-methoxy-2-(4-methylpiperazin-1-yl)-7-(3-(pyrrolidin-1-yl)propoxy)quinazolin-4-yl)amino)tetrahydro-2H-thiopyran 1,1-dioxide]: the pIC50 at CYP2C19, at CYP1A2 (setting [1]) and against CYP3A4 was < 4.00 throughout.
Turning to `COc1cc2c(Nc3ccncc3)nc(-n3ccnc3)nc2cc1OCCCN1CCCC1` [Compound 130, 2-(1H-imidazol-1-yl)-6-methoxy-N-(pyridin-4-yl)-7-(3-(pyrrolidin-1-yl)propoxy)quinazolin-4-amine], the pIC50 on CYP2C19 was 4.12; at CYP1A2 (setting [1]), 4.98; against CYP3A4 it was 5.41.
For the molecule `COc1cc2c(NC3CCN(C(C)C)CC3)nc(C#N)nc2cc1OCCCN1CCCC1` [Compound 235, 4-((1-isopropylpiperidin-4-yl)amino)-6-methoxy-7-(3-(pyrrolidin-1-yl)propoxy)quinazoline-2-carbonitrile], the pIC50 against CYP2C19, on CYP1A2 (setting [1]) and against CYP3A4 was < 4.00 throughout.
With `COc1cc2c(NC3COC3)nc(N3CCC(F)(F)CC3)nc2cc1OCCCN1CCCC1` [Compound 11, 2-(4,4-difluoropiperidin-1-yl)-6-methoxy-N-(oxetan-3-yl)-7-(3-(pyrrolidin-1-yl)propoxy)quinazolin-4-amine], the pIC50 at CYP2C19, on CYP1A2 (setting [1]) and at CYP3A4 was < 4.00 throughout.

As a reminder, the pIC50 is −log10 of the IC50, conventionally taken in molar units.

The values above are taken from patent publication US11485728B2, “Small molecules for the treatment of autoimmune diseases and cancer” (Athos Therapeutics, Inc., priority 2020, dated 2022).
